Reference: PubChem BioAssay (NCI)
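In this assay, cells in 96-well plates receive the compound at five concentrations for 48 hours. Endpoints are linearly interpolated between the surrounding concentrations. TGI denotes the concentration required for complete inhibition of growth.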

These compounds were tested on KM20L2 colon (assay: NCI tumour cell line growth inhibition, 48 h).
`COc1ccc(/C=C(/C(=O)O)c2cc(OC)c(OC)c(OC)c2)cc1` showed a TGI of 98.2 µM. `O=C1Oc2cc3c(c4cccc1c24)OCN(c1ccc(Cl)cc1)C3` gave a TGI of over 100 µM. Compound `CCOC(=O)CCCO` has a TGI of over 100 µM.

What follows are compounds tested on IGROV1 ovarian (assay: NCI tumour cell line growth inhibition, 48 h).
With `c1ccc(-c2nnc(-c3nn(-c4ccccc4)c4nc5ccccc5nc34)o2)cc1` the TGI was over 100 µM. Work on `COc1cc2c(cc1OC)C1C=NC(C(=O)O)(C2)c2ccccc21` (stereo unspecified) yielded a TGI of over 100 µM. `Cc1cc(C)nc(NS(=O)(=O)c2ccc(NC(=O)c3cccc4c(=O)c5ccccc5[nH]c34)cc2)n1` showed a TGI of 68.1 µM. In the case of `O=C(N/N=C/c1cccc(O)c1O)N/N=C/c1cccc(O)c1O`, the TGI is reported as over 100 µM. Compound `CC(=O)OCCc1cccnc1/C=N/O` has a TGI of over 100 µM. `COc1ccc(/C=C(/C(=O)O)c2cc(OC)c(OC)c(OC)c2)cc1` gave a TGI of over 100 µM. In the case of `O=C1Oc2cc3c(c4cccc1c24)OCN(c1ccc(Cl)cc1)C3`, the TGI is reported as over 100 µM. `CCOC(=O)CCCO` gave a TGI of over 100 µM.

What follows are compounds tested on KM12 colon (assay: NCI tumour cell line growth inhibition, 48 h).
Compound `c1ccc(-c2nnc(-c3nn(-c4ccccc4)c4nc5ccccc5nc34)o2)cc1` has a TGI of over 100 µM. `COc1cc2c(cc1OC)C1C=NC(C(=O)O)(C2)c2ccccc21` (stereo unspecified) was tested, and the TGI was over 100 µM. Work on `Cc1cc(C)nc(NS(=O)(=O)c2ccc(NC(=O)c3cccc4c(=O)c5ccccc5[nH]c34)cc2)n1` yielded a TGI of 30.7 µM. Work on `O=C(N/N=C/c1cccc(O)c1O)N/N=C/c1cccc(O)c1O` yielded a TGI of over 100 µM. Work on `CC(=O)OCCc1cccnc1/C=N/O` yielded a TGI of over 100 µM. `COc1ccc(/C=C(/C(=O)O)c2cc(OC)c(OC)c(OC)c2)cc1` showed a TGI of over 100 µM. For `O=C1Oc2cc3c(c4cccc1c24)OCN(c1ccc(Cl)cc1)C3`, the TGI was over 63.6 µM. `CCOC(=O)CCCO` was tested, and the TGI was over 100 µM.

Each compound was assayed on U251 CNS (assay: NCI tumour cell line growth inhibition, 48 h).
Compound `c1ccc(-c2nnc(-c3nn(-c4ccccc4)c4nc5ccccc5nc34)o2)cc1` has a TGI of over 100 µM. `COc1cc2c(cc1OC)C1C=NC(C(=O)O)(C2)c2ccccc21` (stereo unspecified) showed a TGI of over 100 µM. With `Cc1cc(C)nc(NS(=O)(=O)c2ccc(NC(=O)c3cccc4c(=O)c5ccccc5[nH]c34)cc2)n1` the TGI was 32.4 µM. For `O=C(N/N=C/c1cccc(O)c1O)N/N=C/c1cccc(O)c1O`, the TGI was over 100 µM. `CC(=O)OCCc1cccnc1/C=N/O` was tested, and the TGI was over 100 µM. Work on `COc1ccc(/C=C(/C(=O)O)c2cc(OC)c(OC)c(OC)c2)cc1` yielded a TGI of over 100 µM. In the case of `O=C1Oc2cc3c(c4cccc1c24)OCN(c1ccc(Cl)cc1)C3`, the TGI is reported as over 79.5 µM. In the case of `CCOC(=O)CCCO`, the TGI is reported as over 100 µM.

Each compound was assayed on DMS 273 small cell lung (assay: NCI tumour cell line growth inhibition, 48 h).
Work on `c1ccc(-c2nnc(-c3nn(-c4ccccc4)c4nc5ccccc5nc34)o2)cc1` yielded a TGI of over 100 µM. `COc1cc2c(cc1OC)C1C=NC(C(=O)O)(C2)c2ccccc21` (stereo unspecified) was tested, and the TGI was over 100 µM. `Cc1cc(C)nc(NS(=O)(=O)c2ccc(NC(=O)c3cccc4c(=O)c5ccccc5[nH]c34)cc2)n1` was tested, and the TGI was 48.4 µM. Compound `O=C(N/N=C/c1cccc(O)c1O)N/N=C/c1cccc(O)c1O` has a TGI of 65.2 µM. In the case of `CC(=O)OCCc1cccnc1/C=N/O`, the TGI is reported as over 100 µM. Compound `COc1ccc(/C=C(/C(=O)O)c2cc(OC)c(OC)c(OC)c2)cc1` has a TGI of over 100 µM. `O=C1Oc2cc3c(c4cccc1c24)OCN(c1ccc(Cl)cc1)C3` was tested, and the TGI was over 100 µM.

The compounds below were run on SNB-78 CNS (assay: NCI tumour cell line growth inhibition, 48 h).
Work on `c1ccc(-c2nnc(-c3nn(-c4ccccc4)c4nc5ccccc5nc34)o2)cc1` yielded a TGI of over 100 µM. For `COc1cc2c(cc1OC)C1C=NC(C(=O)O)(C2)c2ccccc21` (stereo unspecified), the TGI was over 100 µM. `Cc1cc(C)nc(NS(=O)(=O)c2ccc(NC(=O)c3cccc4c(=O)c5ccccc5[nH]c34)cc2)n1` was tested, and the TGI was 48.6 µM. For `O=C(N/N=C/c1cccc(O)c1O)N/N=C/c1cccc(O)c1O`, the TGI was over 100 µM. With `CC(=O)OCCc1cccnc1/C=N/O` the TGI was over 100 µM. For `COc1ccc(/C=C(/C(=O)O)c2cc(OC)c(OC)c(OC)c2)cc1`, the TGI was over 100 µM. Compound `O=C1Oc2cc3c(c4cccc1c24)OCN(c1ccc(Cl)cc1)C3` has a TGI of over 100 µM.

What follows are compounds tested on XF 498 CNS (assay: NCI tumour cell line growth inhibition, 48 h).
In the case of `c1ccc(-c2nnc(-c3nn(-c4ccccc4)c4nc5ccccc5nc34)o2)cc1`, the TGI is reported as 61 µM. In the case of `Cc1cc(C)nc(NS(=O)(=O)c2ccc(NC(=O)c3cccc4c(=O)c5ccccc5[nH]c34)cc2)n1`, the TGI is reported as 40.6 µM. `O=C(N/N=C/c1cccc(O)c1O)N/N=C/c1cccc(O)c1O` gave a TGI of over 100 µM. In the case of `CC(=O)OCCc1cccnc1/C=N/O`, the TGI is reported as over 100 µM. `O=C1Oc2cc3c(c4cccc1c24)OCN(c1ccc(Cl)cc1)C3` was tested, and the TGI was 45.6 µM. `CCOC(=O)CCCO` was tested, and the TGI was over 100 µM.

These compounds were tested on SF-539 CNS (assay: NCI tumour cell line growth inhibition, 48 h).
`c1ccc(-c2nnc(-c3nn(-c4ccccc4)c4nc5ccccc5nc34)o2)cc1` was tested, and the TGI was over 100 µM. Work on `COc1cc2c(cc1OC)C1C=NC(C(=O)O)(C2)c2ccccc21` (stereo unspecified) yielded a TGI of over 100 µM. `Cc1cc(C)nc(NS(=O)(=O)c2ccc(NC(=O)c3cccc4c(=O)c5ccccc5[nH]c34)cc2)n1` was tested, and the TGI was 35.4 µM. Compound `O=C(N/N=C/c1cccc(O)c1O)N/N=C/c1cccc(O)c1O` has a TGI of 36.2 µM. In the case of `CC(=O)OCCc1cccnc1/C=N/O`, the TGI is reported as over 100 µM. In the case of `COc1ccc(/C=C(/C(=O)O)c2cc(OC)c(OC)c(OC)c2)cc1`, the TGI is reported as 51.2 µM. `O=C1Oc2cc3c(c4cccc1c24)OCN(c1ccc(Cl)cc1)C3` gave a TGI of 23.9 µM. `CCOC(=O)CCCO` showed a TGI of over 100 µM.

What follows are compounds tested on NCI-H460 lung (assay: NCI tumour cell line growth inhibition, 48 h).
`COc1cc2c(cc1OC)C1C=NC(C(=O)O)(C2)c2ccccc21` (stereo unspecified) gave a TGI of over 100 µM. `Cc1cc(C)nc(NS(=O)(=O)c2ccc(NC(=O)c3cccc4c(=O)c5ccccc5[nH]c34)cc2)n1` was tested, and the TGI was 36.1 µM. With `O=C(N/N=C/c1cccc(O)c1O)N/N=C/c1cccc(O)c1O` the TGI was over 100 µM. `CC(=O)OCCc1cccnc1/C=N/O` was tested, and the TGI was over 100 µM. With `COc1ccc(/C=C(/C(=O)O)c2cc(OC)c(OC)c(OC)c2)cc1` the TGI was over 100 µM. `O=C1Oc2cc3c(c4cccc1c24)OCN(c1ccc(Cl)cc1)C3` showed a TGI of over 100 µM. For `CCOC(=O)CCCO`, the TGI was over 100 µM.

Each compound was assayed on NCI-H522 lung (assay: NCI tumour cell line growth inhibition, 48 h).
`c1ccc(-c2nnc(-c3nn(-c4ccccc4)c4nc5ccccc5nc34)o2)cc1` showed a TGI of over 100 µM. `COc1cc2c(cc1OC)C1C=NC(C(=O)O)(C2)c2ccccc21` (stereo unspecified) showed a TGI of over 100 µM. Compound `Cc1cc(C)nc(NS(=O)(=O)c2ccc(NC(=O)c3cccc4c(=O)c5ccccc5[nH]c34)cc2)n1` has a TGI of 27.6 µM. Compound `CC(=O)OCCc1cccnc1/C=N/O` has a TGI of over 100 µM. With `COc1ccc(/C=C(/C(=O)O)c2cc(OC)c(OC)c(OC)c2)cc1` the TGI was 36.6 µM. `O=C1Oc2cc3c(c4cccc1c24)OCN(c1ccc(Cl)cc1)C3` showed a TGI of 30.8 µM. `CCOC(=O)CCCO` was tested, and the TGI was over 100 µM.

These compounds were tested on HL-60(TB) leukemia (assay: NCI tumour cell line growth inhibition, 48 h).
In the case of `c1ccc(-c2nnc(-c3nn(-c4ccccc4)c4nc5ccccc5nc34)o2)cc1`, the TGI is reported as 85.2 µM. Compound `COc1cc2c(cc1OC)C1C=NC(C(=O)O)(C2)c2ccccc21` (stereo unspecified) has a TGI of over 100 µM. `Cc1cc(C)nc(NS(=O)(=O)c2ccc(NC(=O)c3cccc4c(=O)c5ccccc5[nH]c34)cc2)n1` gave a TGI of 47.7 µM. `CC(=O)OCCc1cccnc1/C=N/O` gave a TGI of over 100 µM. `O=C1Oc2cc3c(c4cccc1c24)OCN(c1ccc(Cl)cc1)C3` was tested, and the TGI was over 55.5 µM. `CCOC(=O)CCCO` was tested, and the TGI was over 100 µM.

The compounds below were run on LOX IMVI melanoma (assay: NCI tumour cell line growth inhibition, 48 h).
With `c1ccc(-c2nnc(-c3nn(-c4ccccc4)c4nc5ccccc5nc34)o2)cc1` the TGI was over 100 µM. For `COc1cc2c(cc1OC)C1C=NC(C(=O)O)(C2)c2ccccc21` (stereo unspecified), the TGI was over 100 µM. `Cc1cc(C)nc(NS(=O)(=O)c2ccc(NC(=O)c3cccc4c(=O)c5ccccc5[nH]c34)cc2)n1` gave a TGI of 31.8 µM. `O=C(N/N=C/c1cccc(O)c1O)N/N=C/c1cccc(O)c1O` gave a TGI of over 100 µM. In the case of `CC(=O)OCCc1cccnc1/C=N/O`, the TGI is reported as over 100 µM. For `O=C1Oc2cc3c(c4cccc1c24)OCN(c1ccc(Cl)cc1)C3`, the TGI was 17.7 µM. `CCOC(=O)CCCO` gave a TGI of over 100 µM.

What follows are compounds tested on CCRF-CEM leukemia (assay: NCI tumour cell line growth inhibition, 48 h).
`c1ccc(-c2nnc(-c3nn(-c4ccccc4)c4nc5ccccc5nc34)o2)cc1` showed a TGI of 85.5 µM. `COc1cc2c(cc1OC)C1C=NC(C(=O)O)(C2)c2ccccc21` (stereo unspecified) was tested, and the TGI was over 100 µM. In the case of `Cc1cc(C)nc(NS(=O)(=O)c2ccc(NC(=O)c3cccc4c(=O)c5ccccc5[nH]c34)cc2)n1`, the TGI is reported as over 100 µM. `O=C(N/N=C/c1cccc(O)c1O)N/N=C/c1cccc(O)c1O` showed a TGI of 38.5 µM. Work on `CC(=O)OCCc1cccnc1/C=N/O` yielded a TGI of over 100 µM. In the case of `COc1ccc(/C=C(/C(=O)O)c2cc(OC)c(OC)c(OC)c2)cc1`, the TGI is reported as over 100 µM. `O=C1Oc2cc3c(c4cccc1c24)OCN(c1ccc(Cl)cc1)C3` gave a TGI of 45.7 µM. Compound `CCOC(=O)CCCO` has a TGI of over 100 µM.

These compounds were tested on MALME-3M melanoma (assay: NCI tumour cell line growth inhibition, 48 h).
With `c1ccc(-c2nnc(-c3nn(-c4ccccc4)c4nc5ccccc5nc34)o2)cc1` the TGI was over 100 µM. With `COc1cc2c(cc1OC)C1C=NC(C(=O)O)(C2)c2ccccc21` (stereo unspecified) the TGI was over 100 µM. `Cc1cc(C)nc(NS(=O)(=O)c2ccc(NC(=O)c3cccc4c(=O)c5ccccc5[nH]c34)cc2)n1` was tested, and the TGI was 33.8 µM. For `O=C(N/N=C/c1cccc(O)c1O)N/N=C/c1cccc(O)c1O`, the TGI was 74.4 µM. `CC(=O)OCCc1cccnc1/C=N/O` gave a TGI of over 100 µM. `COc1ccc(/C=C(/C(=O)O)c2cc(OC)c(OC)c(OC)c2)cc1` showed a TGI of over 100 µM. In the case of `O=C1Oc2cc3c(c4cccc1c24)OCN(c1ccc(Cl)cc1)C3`, the TGI is reported as over 60.7 µM. `CCOC(=O)CCCO` gave a TGI of over 100 µM.

What follows are compounds tested on SNB-75 CNS (assay: NCI tumour cell line growth inhibition, 48 h).
Work on `c1ccc(-c2nnc(-c3nn(-c4ccccc4)c4nc5ccccc5nc34)o2)cc1` yielded a TGI of over 100 µM. For `COc1cc2c(cc1OC)C1C=NC(C(=O)O)(C2)c2ccccc21` (stereo unspecified), the TGI was over 100 µM. With `Cc1cc(C)nc(NS(=O)(=O)c2ccc(NC(=O)c3cccc4c(=O)c5ccccc5[nH]c34)cc2)n1` the TGI was 50 µM. `O=C(N/N=C/c1cccc(O)c1O)N/N=C/c1cccc(O)c1O` showed a TGI of 50.4 µM. `CC(=O)OCCc1cccnc1/C=N/O` gave a TGI of over 100 µM. Work on `COc1ccc(/C=C(/C(=O)O)c2cc(OC)c(OC)c(OC)c2)cc1` yielded a TGI of 79 µM. With `O=C1Oc2cc3c(c4cccc1c24)OCN(c1ccc(Cl)cc1)C3` the TGI was over 100 µM. Work on `CCOC(=O)CCCO` yielded a TGI of over 100 µM.
